Test results taken from article PMC5218480 (PLoS ONE, 2017).

Test system: MV-4-11 cells
Assay: Gene expression microarray analysis (Affymetrix PrimeView) and GSEA
Assay type: cell-based, human
Set-up: RFU PODN (11730768_x_at) / Fold change /veh PODN (11730768_x_at) / RFU LINC00158 (11744669_a_at) / Fold change /veh LINC00158 (11744669_a_at) / RFU DUSP10 (11751237_a_at) / Fold change /veh DUSP10 (11751237_a_at) / RFU ID3 (11757404_x_at) / Fold change /veh ID3 (11757404_x_at) / RFU PLEKHG5 (11737974_s_at) / Fold change /veh PLEKHG5 (11737974_s_at) / RFU LRRC4B (11730491_at) / Fold change /veh LRRC4B (11730491_at) / RFU GIMAP4 (11747438_a_at) / Fold change /veh GIMAP4 (11747438_a_at) / RFU KRT8 (11758183_x_at) / Fold change /veh KRT8 (11758183_x_at) / RFU CNN1 (11734310_a_at) / Fold change /veh CNN1 (11734310_a_at) / RFU VPS37D (11726825_at) / Fold change /veh VPS37D (11726825_at) / RFU C10orf10 (11716522_x_at) / Fold change /veh C10orf10 (11716522_x_at) / RFU KIR2DL2 /// KIR2DL4 /// KIR2DL5A /// KIR2DL5B /// KIR2DS1 /// KIR2DS2 /// KIR2DS3 /// KIR2DS4 /// KIR3DL3 /// KIR3DL3 /// KIR3DS1 (11738374_at) / Fold change /veh KIR2DL2 /// KIR2DL4 /// KIR2DL5A /// KIR2DL5B /// KIR2DS1 /// KIR2DS2 /// KIR2DS3 /// KIR2DS4 /// KIR3DL3 /// KIR3DL3 /// KIR3DS1 (11738374_at) / RFU C1QL1 (11718748_at) / Fold change /veh C1QL1 (11718748_at) / RFU TMPRSS4 (11747572_a_at) / Fold change /veh TMPRSS4 (11747572_a_at) / RFU HAMP (11756126_x_at) / Fold change /veh HAMP (11756126_x_at) / RFU RNFT2 (11725882_a_at) / Fold change /veh RNFT2 (11725882_a_at) / RFU NR4A2 (11747474_a_at) / Fold change /veh NR4A2 (11747474_a_at) / RFU ABCC12 (11746883_a_at) / Fold change /veh ABCC12 (11746883_a_at) / RFU TMEM136 (11760407_x_at) / Fold change /veh TMEM136 (11760407_x_at) / RFU CLDN22 /// WWC2 (11732394_at) / Fold change /veh CLDN22 /// WWC2 (11732394_at) / RFU HLA-DPB1 (11760878_x_at) / Fold change /veh HLA-DPB1 (11760878_x_at) / RFU SPINT1 (11716480_a_at) / Fold change /veh SPINT1 (11716480_a_at) / RFU GAP43 (11754022_s_at) / Fold change /veh GAP43 (11754022_s_at) / RFU A4GNT (11735810_at) / Fold change /veh A4GNT (11735810_at) / RFU PRB3 (11715151_x_at) / Fold change /veh PRB3 (11715151_x_at) / RFU TUBB4B (11761932_at) / Fold change /veh TUBB4B (11761932_at) / RFU CAPN14 (11732068_a_at) / Fold change /veh CAPN14 (11732068_a_at) / RFU TMCC2 (11721928_a_at) / Fold change /veh TMCC2 (11721928_a_at) / RFU IRGQ (11745062_a_at) / Fold change /veh IRGQ (11745062_a_at) / RFU FAM174B (11720279_a_at) / Fold change /veh FAM174B (11720279_a_at) / RFU TMPRSS4 (11748680_a_at) / Fold change /veh TMPRSS4 (11748680_a_at) / RFU FAM212B (11763350_a_at) / Fold change /veh FAM212B (11763350_a_at) / RFU PLEKHG5 (11743358_a_at) / Fold change /veh PLEKHG5 (11743358_a_at) / RFU ZSCAN30 (11745921_a_at) / Fold change /veh ZSCAN30 (11745921_a_at) / RFU CMKLR1 (11741424_a_at) / Fold change /veh CMKLR1 (11741424_a_at) / RFU LOC101060620 /// MAPK8IP1 (11723275_at) / Fold change /veh LOC101060620 /// MAPK8IP1 (11723275_at) / RFU SPTSSB (11747773_x_at) / Fold change /veh SPTSSB (11747773_x_at) / RFU PRSS12 (11739890_at) / Fold change /veh PRSS12 (11739890_at) / RFU BIN1 (11741810_x_at) / Fold change /veh BIN1 (11741810_x_at) / RFU WNT11 (11732464_a_at) / Fold change /veh WNT11 (11732464_a_at) / RFU C10orf10 (11716521_a_at) / Fold change /veh C10orf10 (11716521_a_at) / RFU C5orf56 (11738089_at) / Fold change /veh C5orf56 (11738089_at) / RFU CYB561 (11721691_x_at) / Fold change /veh CYB561 (11721691_x_at) / RFU ANKRD19P (11752326_a_at) / Fold change /veh ANKRD19P (11752326_a_at) / RFU OR2T12 /// OR2T33 /// OR2T8 (11738714_s_at) / Fold change /veh OR2T12 /// OR2T33 /// OR2T8 (11738714_s_at) / RFU VCAN (11748164_a_at) / Fold change /veh VCAN (11748164_a_at) / RFU JSRP1 (11732532_at) / Fold change /veh JSRP1 (11732532_at) / RFU KRTAP10-11 (11738290_x_at) / Fold change /veh KRTAP10-11 (11738290_x_at) / RFU MYO3A (11730013_a_at) / Fold change /veh MYO3A (11730013_a_at) / RFU EBF3 (11725865_a_at) / Fold change /veh EBF3 (11725865_a_at) / RFU CAMK2N1 (11719241_x_at) / Fold change /veh CAMK2N1 (11719241_x_at) / RFU C5orf56 (11738088_a_at) / Fold change /veh C5orf56 (11738088_a_at) / RFU OLFML3 (11715873_a_at) / Fold change /veh OLFML3 (11715873_a_at) / RFU LOC100653217 /// NTM (11731650_a_at) / Fold change /veh LOC100653217 /// NTM (11731650_a_at) / RFU MAPK11 (11762145_a_at) / Fold change /veh MAPK11 (11762145_a_at) / RFU FIZ1 (11724087_x_at) / Fold change /veh FIZ1 (11724087_x_at) / RFU OASL (11726364_x_at) / Fold change /veh OASL (11726364_x_at) / RFU SOX15 (11748057_x_at) / Fold change /veh SOX15 (11748057_x_at) / RFU CD79A (11719716_a_at) / Fold change /veh CD79A (11719716_a_at) / RFU HIST1H1D (11736915_at) / Fold change /veh HIST1H1D (11736915_at) / RFU CASKIN2 (11723855_a_at) / Fold change /veh CASKIN2 (11723855_a_at) / RFU LOC730098 (11760151_x_at) / Fold change /veh LOC730098 (11760151_x_at) / RFU OR4N2 (11742367_at) / Fold change /veh OR4N2 (11742367_at) / RFU PRRT2 (11749266_a_at) / Fold change /veh PRRT2 (11749266_a_at) / RFU SNX32 (11753110_a_at) / Fold change /veh SNX32 (11753110_a_at) / RFU CDHR5 (11726645_a_at) / Fold change /veh CDHR5 (11726645_a_at) / RFU RCAN1 (11760418_a_at) / Fold change /veh RCAN1 (11760418_a_at) / RFU FAM167A (11723789_a_at) / Fold change /veh FAM167A (11723789_a_at) / RFU FAM26E (11764081_at) / Fold change /veh FAM26E (11764081_at) / RFU ISYNA1 (11749810_s_at) / Fold change /veh ISYNA1 (11749810_s_at) / RFU ACY1 (11761880_at) / Fold change /veh ACY1 (11761880_at) / RFU 11764098_at / Fold change /veh 11764098_at / RFU SAMD14 (11745864_x_at) / Fold change /veh SAMD14 (11745864_x_at) / RFU NPB (11741838_a_at) / Fold change /veh NPB (11741838_a_at) / RFU TMPRSS6 (11731388_a_at) / Fold change /veh TMPRSS6 (11731388_a_at) / RFU KRTAP10-2 (11738614_at) / Fold change /veh KRTAP10-2 (11738614_at) / RFU ARHGAP8 /// PRR5-ARHGAP8 (11727945_x_at) / Fold change /veh ARHGAP8 /// PRR5-ARHGAP8 (11727945_x_at) / RFU KRTAP5-7 /// NADSYN1 (11734609_at) / Fold change /veh KRTAP5-7 /// NADSYN1 (11734609_at) / RFU RASL12 (11751679_a_at) / Fold change /veh RASL12 (11751679_a_at) / RFU CDKN2B (11736163_a_at) / Fold change /veh CDKN2B (11736163_a_at) / RFU PRF1 (11729649_at) / Fold change /veh PRF1 (11729649_at) / RFU, ZNF638 /// ZNF638-IT1 / Fold change vs veh, ZNF638 /// ZNF638-IT1 / RFU, PANK3 / Fold change vs veh, PANK3 / RFU, SH3YL1 / Fold change vs veh, SH3YL1 / RFU, ZEB2 / Fold change vs veh, ZEB2 / RFU, NRIP1 / Fold change vs veh, NRIP1 / RFU, PTTG1IP / Fold change vs veh, PTTG1IP / RFU, CAPN2 / Fold change vs veh, CAPN2 / RFU, MED14 / Fold change vs veh, MED14 / RFU, SNORA58 / Fold change vs veh, SNORA58 / RFU, C1orf63 / Fold change vs veh, C1orf63 / RFU, LRRFIP1 / Fold change vs veh, LRRFIP1 / RFU, NDUFAF7 / Fold change vs veh, NDUFAF7 / RFU, SLC12A2 / Fold change vs veh, SLC12A2 / RFU, IBTK / Fold change vs veh, IBTK / RFU, ESF1 / Fold change vs veh, ESF1 / Fold change vs veh, TMEM50B / RFU, TAOK1 / Fold change vs veh, TAOK1 / RFU, ACBD3 / Fold change vs veh, ACBD3 / RFU, TMA16 / Fold change vs veh, TMA16 / RFU, RWDD3 / Fold change vs veh, RWDD3 / RFU, BCAT1 / Fold change vs veh, BCAT1 / RFU, EDEM3 / Fold change vs veh, EDEM3 / RFU, TMEM33 / Fold change vs veh, TMEM33 / RFU, WDR75 / Fold change vs veh, WDR75 / RFU, AHCTF1 / Fold change vs veh, AHCTF1 / RFU, TFRC / Fold change vs veh, TFRC / RFU, ZDHHC17 / Fold change vs veh, ZDHHC17 / RFU, NOM1 / Fold change vs veh, NOM1 / RFU, ARL8B / Fold change vs veh, ARL8B / RFU, ZBTB11 / Fold change vs veh, ZBTB11 / RFU, TAMM41 / Fold change vs veh, TAMM41 / RFU, KIAA1704 /// LOC100996395 / Fold change vs veh, KIAA1704 /// LOC100996395 / RFU, ING1 / Fold change vs veh, ING1 / RFU, TRMT61B / Fold change vs veh, TRMT61B / RFU, FUBP3 / Fold change vs veh, FUBP3 / RFU, TP53 / Fold change vs veh, TP53 / RFU, TNKS2 / Fold change vs veh, TNKS2 / RFU, ZFP14 / Fold change vs veh, ZFP14 / RFU, ACTR2 / Fold change vs veh, ACTR2 / RFU, PPP3R1 / Fold change vs veh, PPP3R1 / RFU, PIK3R1 / Fold change vs veh, PIK3R1 / RFU, HNRNPA1 / Fold change vs veh, HNRNPA1 / RFU, RNF170 / Fold change vs veh, RNF170 / RFU, ZNF28 / Fold change vs veh, ZNF28 / RFU, RNGTT / Fold change vs veh, RNGTT / RFU, OGT / Fold change vs veh, OGT / RFU, BRD1 / Fold change vs veh, BRD1 / RFU, MARS / Fold change vs veh, MARS / RFU, ZNF655 / Fold change vs veh, ZNF655 / RFU, FAHD1 / Fold change vs veh, FAHD1 / RFU, BDP1 / Fold change vs veh, BDP1 / RFU, LRRCC1 / Fold change vs veh, LRRCC1 / RFU, ARID1A / Fold change vs veh, ARID1A / RFU, ZNF146 / Fold change vs veh, ZNF146 / RFU, ZNF330 / Fold change vs veh, ZNF330 / RFU, GPN3 / Fold change vs veh, GPN3 / RFU, C9orf123 / Fold change vs veh, C9orf123 / RFU, N4BP2L2 / Fold change vs veh, N4BP2L2 / RFU, ARFIP1 / Fold change vs veh, ARFIP1 / RFU, FAM179B / Fold change vs veh, FAM179B / RFU, BCL10 / Fold change vs veh, BCL10 / RFU, UHRF1BP1L / Fold change vs veh, UHRF1BP1L / RFU, BET1 / Fold change vs veh, BET1 / RFU, CNOT2 / Fold change vs veh, CNOT2 / RFU, ZNF268 / Fold change vs veh, ZNF268 / Fold change vs veh, ZNF507 / RFU, DGCR2 / Fold change vs veh, DGCR2 / RFU, WDSUB1 / Fold change vs veh, WDSUB1 / Fold change vs veh, HSP90B1 /// MIR3652 / RFU, ADSS / Fold change vs veh, ADSS / RFU, GK / Fold change vs veh, GK / RFU, ZNF148 / Fold change vs veh, ZNF148 / RFU, TAF9 / Fold change vs veh, TAF9 / RFU, SLC1A5 / Fold change vs veh, SLC1A5 / RFU, SLMO2 / Fold change vs veh, SLMO2 / RFU, ABCC4 / Fold change vs veh, ABCC4 / RFU, LOC101060439 /// RAP1B / Fold change vs veh, LOC101060439 /// RAP1B / RFU, RFX7 / Fold change vs veh, RFX7 / RFU, GTPBP10 / Fold change vs veh, GTPBP10 / RFU, CNEP1R1 / Fold change vs veh, CNEP1R1 / RFU, BIVM-ERCC5 /// ERCC5 / Fold change vs veh, BIVM-ERCC5 /// ERCC5 / RFU, ILF3 / Fold change vs veh, ILF3 / RFU 11762660_at / Fold change /veh 11762660_at / RFU VCAN (11757783_s_at) / Fold change /veh VCAN (11757783_s_at) / RFU DDX43 (11728927_at) / Fold change /veh DDX43 (11728927_at) / RFU KRT8 (11758188_x_at) / Fold change /veh KRT8 (11758188_x_at) / RFU NKD1 (11759106_at) / Fold change /veh NKD1 (11759106_at) / RFU SRD5A1 (11742802_a_at) / Fold change /veh SRD5A1 (11742802_a_at) / RFU TPSAB1 /// TPSB2 (11721975_s_at) / Fold change /veh TPSAB1 /// TPSB2 (11721975_s_at) / RFU GSTM3 (11746129_a_at) / Fold change /veh GSTM3 (11746129_a_at) / RFU IL23R (11737362_x_at) / Fold change /veh IL23R (11737362_x_at) / RFU TMEM51 (11727254_a_at) / Fold change /veh TMEM51 (11727254_a_at) / RFU PIWIL2 (11732686_x_at) / Fold change /veh PIWIL2 (11732686_x_at) / RFU ORM1 (11744905_x_at) / Fold change /veh ORM1 (11744905_x_at) / RFU CCDC152 (11743942_at) / Fold change /veh CCDC152 (11743942_at) / RFU ECM1 (11717891_a_at) / Fold change /veh ECM1 (11717891_a_at) / RFU IL23R (11748794_a_at) / Fold change /veh IL23R (11748794_a_at) / RFU TNFAIP8L3 (11732012_x_at) / Fold change /veh TNFAIP8L3 (11732012_x_at) / RFU MBOAT4 (11741988_at) / Fold change /veh MBOAT4 (11741988_at) / RFU 11764193_at / Fold change /veh 11764193_at / RFU TMEM53 (11763286_at) / Fold change /veh TMEM53 (11763286_at) / RFU MAGEB2 (11727129_at) / Fold change /veh MAGEB2 (11727129_at) / RFU TMEM200A (11744735_a_at) / Fold change /veh TMEM200A (11744735_a_at) / RFU CCDC152 (11751479_a_at) / Fold change /veh CCDC152 (11751479_a_at) / RFU FAM211A (11726209_a_at) / Fold change /veh FAM211A (11726209_a_at) / RFU RGS16 (11746705_a_at) / Fold change /veh RGS16 (11746705_a_at) / RFU VCAN (11755009_s_at) / Fold change /veh VCAN (11755009_s_at) / RFU RHOB (11743442_s_at) / Fold change /veh RHOB (11743442_s_at) / RFU RGS16 (11720943_a_at) / Fold change /veh RGS16 (11720943_a_at) / RFU RGS16 (11720944_at) / Fold change /veh RGS16 (11720944_at) / RFU, VPS4B / Fold change vs veh, VPS4B / RFU, CREB1 / Fold change vs veh, CREB1 / RFU, DNAJC13 / Fold change vs veh, DNAJC13 / RFU, GNAQ / Fold change vs veh, GNAQ / RFU, CDK5R1 / Fold change vs veh, CDK5R1 / RFU, ZRANB3 / Fold change vs veh, ZRANB3 / RFU, CUL4A / Fold change vs veh, CUL4A / RFU, CCNY / Fold change vs veh, CCNY / RFU, UFL1 / Fold change vs veh, UFL1 / RFU, COG3 / Fold change vs veh, COG3 / RFU, DIAPH2 / Fold change vs veh, DIAPH2 / RFU, SKA2 / Fold change vs veh, SKA2 / RFU, AFF3 / Fold change vs veh, AFF3 / RFU, LMF1 / Fold change vs veh, LMF1 / RFU, IPO11 / Fold change vs veh, IPO11 / RFU, DFFB / Fold change vs veh, DFFB / RFU, FOXP1 / Fold change vs veh, FOXP1 / RFU, CARD8 / Fold change vs veh, CARD8 / RFU, STRN3 / Fold change vs veh, STRN3 / RFU, ADK / Fold change vs veh, ADK / RFU, RASSF2 / Fold change vs veh, RASSF2 / RFU, WIPF1 / Fold change vs veh, WIPF1 / RFU, LARP1B / Fold change vs veh, LARP1B / RFU, RASA1 / Fold change vs veh, RASA1 / RFU, RB1 / Fold change vs veh, RB1 / RFU, PPFIA1 / Fold change vs veh, PPFIA1 / RFU, MAT2A / Fold change vs veh, MAT2A / RFU, CCT5 / Fold change vs veh, CCT5 / RFU, WDR92 / Fold change vs veh, WDR92 / RFU, CUX1 / Fold change vs veh, CUX1 / RFU, TTC7A / Fold change vs veh, TTC7A / RFU, TMEM135 / Fold change vs veh, TMEM135 / RFU, DEPTOR / Fold change vs veh, DEPTOR / RFU, CPM / Fold change vs veh, CPM / RFU, DNAJB6 / Fold change vs veh, DNAJB6 / RFU, CACNA2D3 / Fold change vs veh, CACNA2D3 / RFU, DTX4 / Fold change vs veh, DTX4 / RFU, TFCP2 / Fold change vs veh, TFCP2 / RFU, GMCL1 /// GMCL1P1 / Fold change vs veh, GMCL1 /// GMCL1P1 / RFU, AEBP2 / Fold change vs veh, AEBP2 / RFU, SNHG1 /// SNORD22 /// SNORD25 /// SNORD26 /// SNORD27 /// SNORD28 /// SNORD29 /// SNORD31 / Fold change vs veh, SNHG1 /// SNORD22 /// SNORD25 /// SNORD26 /// SNORD27 /// SNORD28 /// SNORD29 /// SNORD31 / Fold change (Aza/veh), C12orf56 (ProbeSet 11735607_a_at) / Fold change (ACY-1035/veh), C12orf56 (ProbeSet 11735607_a_at) / Fold change (Aza/veh), FGFR1OP (ProbeSet 11751329_s_at) / Fold change (ACY-1035/veh), FGFR1OP (ProbeSet 11751329_s_at) / Fold change (Aza/veh), VPS36 (ProbeSet 11739960_a_at) / Fold change (ACY-1035/veh), VPS36 (ProbeSet 11739960_a_at) / RFU SYPL1 (11715823_x_at) / Fold change /veh SYPL1 (11715823_x_at) / RFU IGFBP7 (11715501_s_at) / Fold change /veh IGFBP7 (11715501_s_at) / RFU REEP3 (11722064_at) / Fold change /veh REEP3 (11722064_at) / RFU IGLL1 (11728026_x_at) / Fold change /veh IGLL1 (11728026_x_at): dose or concentration left out as unconfirmed
Settings: MV-4-11 cells, 48 hours

With `Nc1ncn([C@@H]2O[C@H](CO)[C@@H](O)[C@H]2O)c(=O)n1` [azacitidine] the “Fold change /veh PLEKHG5 (11743358_a_at)” value was 1.07.
